The IC50 is the concentration needed to halve the response being measured.

The values that follow come from patent US20250188094A1, “PYRAZOLE MEMBRANE-ASSOCIATED TYROSINE-AND THREONINE-SPECIFIC CDC2-INHIBITORY KINASE (PKMYT1) INHIBITORS AND USES THEREOF” (Insilico Medicine IP Limited, priority 2022, published 2025).

Each structure is given as a SMILES string.

For one assay, the target named is PKMYT1 (Homo sapiens (Human), UniProt Q99640). Briefly: PKMYT1 HTRF Assay. The class given is binding. As to conditions: Tracer 178, GST-Tb, read-out: MYT1 HTRF IC50. How it is done:
Example A: PKMYT1 HTRF Assay
Compound serial dilution was performed by Echo, and the final concentrations vary from 10 μM to 0.5 nM. This was filled by the addition of 5 μL/well of Enzyme solution to the assay plate containing the compound. The plate was centrifuged at 1000 rpm for 1 minute, and incubate 15 minutes at 25° C. Then 5 μL/well of tracer solution (Tracer 178) was added to initiate the reaction, and incubate for 60 minutes at 25° C. Next 5 μL GST-Tb was added into the assay plate, the plate was centrifuged at 1000 rpm for 1 minute, and incubate for 15 minutes at 25° C. The assay plate was read on Envision.
On the technique in general: In TR-FRET formats the signal depends on donor and acceptor labels being close together.

For the next assay, the target named is WEE1 (Homo sapiens (Human), UniProt P30291). The assay can be described thus: WEE1 ADP-Glo Assay. The class given is biochemical. Conditions: luminescence. On the procedure:
Example B: WEE1 ADP-Glo Assay
Compound serial dilution is performed by Echo, and the final concentrations vary from 10 μM to 0.5 nM. This was filled by the addition of 5 μL/well of Enzyme solution to the assay plate containing the compound. The plate was centrifuged at 1000 rpm for 1 minute, and incubate 15 minutes at 25° C. Then 5 μL/well of substrate solution was added to initiate the reaction, and incubate for 60 minutes at 25° C. Next 10 μL kinase detection reagent was added into the assay plate, the plate was centrifuged at 1000 rpm for 1 minute, and incubate for 60 minutes at 25° C. The assay plate was read on Envision for US LUM as RLU.
In general terms: ADP-Glo first removes unused ATP, then detects ADP through luciferase.

WEE1, sequence (P30291 whole entry, species assumed): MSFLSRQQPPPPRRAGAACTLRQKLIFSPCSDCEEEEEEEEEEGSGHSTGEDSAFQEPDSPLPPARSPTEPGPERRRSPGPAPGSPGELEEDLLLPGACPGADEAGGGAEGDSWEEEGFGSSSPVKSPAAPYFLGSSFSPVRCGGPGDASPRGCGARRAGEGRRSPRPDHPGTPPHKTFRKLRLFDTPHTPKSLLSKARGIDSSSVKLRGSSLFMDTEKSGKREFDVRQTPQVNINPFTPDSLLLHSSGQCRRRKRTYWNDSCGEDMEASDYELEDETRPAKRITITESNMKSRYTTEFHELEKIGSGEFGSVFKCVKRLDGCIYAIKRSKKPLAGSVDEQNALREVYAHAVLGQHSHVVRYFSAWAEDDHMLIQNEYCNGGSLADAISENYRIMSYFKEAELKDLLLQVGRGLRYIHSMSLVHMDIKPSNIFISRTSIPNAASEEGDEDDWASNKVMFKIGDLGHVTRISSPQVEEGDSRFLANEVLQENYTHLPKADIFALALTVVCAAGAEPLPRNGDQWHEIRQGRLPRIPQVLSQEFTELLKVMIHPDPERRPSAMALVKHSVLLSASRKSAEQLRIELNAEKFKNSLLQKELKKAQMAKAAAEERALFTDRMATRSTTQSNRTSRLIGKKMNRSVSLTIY
PKMYT1, sequence (Q99640 whole entry, species assumed): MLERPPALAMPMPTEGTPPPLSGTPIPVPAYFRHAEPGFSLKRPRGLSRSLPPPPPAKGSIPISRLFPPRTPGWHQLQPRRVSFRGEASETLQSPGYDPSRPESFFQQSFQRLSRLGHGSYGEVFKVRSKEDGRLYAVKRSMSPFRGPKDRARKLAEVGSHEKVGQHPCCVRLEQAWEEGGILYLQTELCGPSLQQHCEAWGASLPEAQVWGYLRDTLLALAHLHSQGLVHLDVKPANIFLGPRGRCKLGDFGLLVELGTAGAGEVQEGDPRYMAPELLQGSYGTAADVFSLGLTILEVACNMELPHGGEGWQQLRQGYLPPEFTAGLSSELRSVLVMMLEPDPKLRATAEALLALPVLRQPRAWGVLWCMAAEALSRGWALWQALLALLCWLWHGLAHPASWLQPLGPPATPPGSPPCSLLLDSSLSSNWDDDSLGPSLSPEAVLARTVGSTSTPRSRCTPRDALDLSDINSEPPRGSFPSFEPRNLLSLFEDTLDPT

As to `Cc1ccc(O)c(C)c1-n1nc(-c2nc3cnccc3s2)c(C(N)=O)c1N` [Example 7, 5-amino-1-(3-hydroxy-2,6-dimethylphenyl)-3-(thiazolo[4,5-c]pyridin-2-yl)-1H-pyrazole-4-carboxamide], the figures for the half-maximal inhibitory concentration (IC50) at PKMYT1 and at WEE1 were 10 to 50 nM and 500 to 5000 nM, respectively.

For `Cc1ccc(O)c(C)c1-n1nc(-c2ncc3n2CCCC3)c(C(N)=O)c1N` [Example 11, 5-amino-1-(3-hydroxy-2,6-dimethylphenyl)-3-(5,6,7,8-tetrahydroimidazo[1,5-a]pyridin-3-yl)-1H-pyrazole-4-carboxamide], on PKMYT1, the half-inhibitory concentration (IC50) lay in the range of 50 to 500 nM.

For the compound `Cc1c(O)ccc(Cl)c1-n1nc(-c2nccs2)c(C(N)=O)c1N` [Example 6, 5-amino-1-(6-chloro-3-hydroxy-2-methylphenyl)-3-(thiazol-2-yl)-1H-pyrazole-4-carboxamide], the 50% inhibitory concentration (IC50) at PKMYT1 was less than 10 nM; on WEE1, 50 to 500 nM.

Consider `Cc1ccc(O)c(C)c1-n1nc(-c2ccn(CC(C)(C)O)n2)c(C(N)=O)c1N` [Example 8, 5-amino-1-(3-hydroxy-2,6-dimethylphenyl)-1′-(2-hydroxy-2-methylpropyl)-1H,1′H-[3,3′-bipyrazole]-4-carboxamide], for which the results for the IC50 at PKMYT1 and on WEE1 were 50 to 500 nM and more than 5000 nM, respectively.

Regarding `Cc1ccc(O)c(C)c1-n1nc(-c2ccc(C(F)(F)F)cn2)c(C(N)=O)c1N` [Example 10, 5-amino-1-(3-hydroxy-2,6-dimethylphenyl)-3-(5-(trifluoromethyl)pyridin-2-yl)-1H-pyrazole-4-carboxamide], the concentration for half-maximal inhibition (IC50) on PKMYT1 was in the range of 10 to 50 nM; against WEE1, 500 to 5000 nM.

Regarding `Cc1csc(-c2nn(-c3c(C)ccc(O)c3C)c(N)c2C(N)=O)n1` [Example 4, 5-amino-1-(3-hydroxy-2,6-dimethylphenyl)-3-(4-methylthiazol-2-yl)-1H-pyrazole-4-carboxamide], the IC50 at PKMYT1 was less than 10 nM.

As to `Cc1cnc(-c2nn(-c3c(C)ccc(O)c3C)c(N)c2C(N)=O)s1` [Example 5, 5-amino-1-(3-hydroxy-2,6-dimethylphenyl)-3-(5-methylthiazol-2-yl)-1H-pyrazole-4-carboxamide], the IC50 on PKMYT1 is less than 10 nM.

Turning to `Cc1ccc(O)c(C)c1-n1nc(-c2nccs2)c(C(N)=O)c1N` [Example 2, 5-amino-1-(3-hydroxy-2,6-dimethylphenyl)-3-(thiazol-2-yl)-1H-pyrazole-4-carboxamide], the IC50 on WEE1 was in the range of 50 to 500 nM.

Take `Cc1ccc(O)c(C)c1-n1nc(-c2nccs2)c(C(N)=O)c1N` [Example 1, 5-amino-1-(3-hydroxy-2,6-dimethylphenyl)-3-(thiazol-2-yl)-1H-pyrazole-4-carboxamide]: the IC50 at PKMYT1 is less than 10 nM; at WEE1 it was 50 to 500 nM.

Consider `Cc1ccc(O)c(C)c1-n1nc(-c2ccn(C(F)F)n2)c(C(N)=O)c1N` [Example 9, 5-amino-1′-(difluoromethyl)-1-(3-hydroxy-2,6-dimethylphenyl)-1H,1′H-[3,3′-bipyrazole]-4-carboxamide], for which the IC50 is less than 10 nM on PKMYT1 and 50 to 500 nM at WEE1.

On to `Cc1ccc(O)c(C)c1-n1nc(-c2nc(C(F)(F)F)cs2)c(C(N)=O)c1N` [Example 3, 5-amino-1-(3-hydroxy-2,6-dimethylphenyl)-3-(4-(trifluoromethyl)thiazol-2-yl)-1H-pyrazole-4-carboxamide], for which the IC50 on PKMYT1 was less than 10 nM; at WEE1 it was 50 to 500 nM.
